Data published in patent US3963716A, “Novel 1-phthalazone derivative, a process for its preparation and a pharmaceutical composition containing it” (priority 1973, dated 1976).
Like-named read-outs stand apart in the source and are kept apart here.

Columns and labels:
in vivo = conditions: mouse, oral, mice
[1] = system: spontaneously hypertensive rats; experiment: hypotensive effect in spontaneously hypertensive rats; type: in vivo, rat; conditions: for hypotensive effect (in words): intraperitoneal or oral doses up to 50 mg/Kg
Excerpt: The present compounds have a unique hypotensive effect in spontaneously hypertensive rats. The spontaneously hypertensive rats, abbreviated as SH rats, are produced by selective breeding of spontaneously hypertensive rats and continuous inbreeding with hypertensive mates, and they might be acknowledged as genetically hypertensive. It is believed that SH rats have a striking similarity to human essential hypertension and their reactions can be extrapolated to this morbid condition.
In the blood pressure test, SH rats weighing 210 - 250 g and aged 13-15 weeks were used, and the compounds tested were administered intraperitoneally. Each value in the Table V hows an average figure for three rats.

human platelet = human platelet aggregation in vitro induced by ADP or adrenaline (CPRP); type: cell-based; conditions: 200 s
Experimental: Samples of human CPRP (citrated platelet-rich plasma) were incubated at 37°C. for 200 sec. with 1/10 volume of saline containing various amount of the compound to be tested. To the mixture was then added ADP (3μMole) or adrenaline (1 μg/ml). Intensity of primary and secondary aggregation was measured with a platelet aggregation meter (Chrono-Log, Model 300).
Intensity of ADP- or adrenaline-induced aggregation of each sample, which was incubated with the compound, was compared with that of the same sample incubated with saline. The ratio was expressed as a percentage of intensity of aggregation with the compound against one with saline.
The intensity of primary and secondary aggregation of platelets was measured by the procedure described in H. Yamazaki, T. Sano, et al.; title[Platelet Functions in Thromboembolic Disorders] Thrombosis et Diatheses Haemorrhagica "in press" and the references cited therein.

aorta of rabbits = experiment: prevention of cholesterol-induced atherosclerosis in rabbits (surface covered by fatty streaks in the aorta); type: in vivo, albino rabbits; conditions: rabbit aorta; oral 1 mg/Kg daily, 15 weeks, diet with 1% cholesterol; placebo 54.6±5.4
Experimental: Forty healthy albino rabbits of the same age and of the same family were used in the experiment.
After the completion of the regimen, the rabbits were killed and the percentage of the surface covered by fatty streaks was measured in each aorta of the rabbits stained with Sundan IV. The percent of the surface covered by fatty streaks in the aorta of the rabbits was measured by the procedure described in T. Shimamoto, F. Numano, T. Fujita; American Heart Journal, 71, 2216 (1966).

[2] = biological target: cyclic AMP phosphodiesterase; experiment: inhibition of cyclic AMP phosphodiesterase, aortic wall intima (rabbit); type: biochemical; conditions: 50% inhibition of cyclic AMP phosphodiesterase; read-out: I50, Aortic Wall, Intima (rabbit)
Experimental: (§1) The procedure of the experiment was carried out in accordance with the method described in H. Hidaka and M. Shibuya: title "A new assay of cyclic nucleotide phosphodiesterase and its application to humans", Biochemical Medicine, (in press).

aortic wall of rabbits = experiment: regression of preestablished cholesterol-induced atherosclerosis in rabbits (cholesterol content of the aortic wall); type: in vivo, albino rabbits; conditions: oral 1 mg/Kg daily, head prints (μg)
Excerpt: For the regressive test, 50 healthy albino rabbits were fed with a diet containing 1% cholesterol for 15 weeks. Five rabbits were killed at the 15th week of the cholesterol feeding and the remaining 45 rabbits were divided into 3 groups. […] Five each of the rabbits of the 3 groups were killed after 6, 10 and 20 weeks, respectively. The total contents of cholesterol in the aortic wall were estimated by gas chromatography, the results of which are shown in the Table III.
1. The total content of cholesterol in the aortic wall was measured by the procedure described in T. Shimamoto, F. Numano, T. Fujita et al.; Asian med. Journal, 8. 12 (1965) 2. […] 3. The total chloesterol contents indicated in Table III were shown in μg per one mg of the dried aortic wall. The value in the Table is the average figure for 5 rabbits

[3] = system: cyclic AMP phosphodiesterase; experiment: inhibition of cyclic AMP phosphodiesterase, human platelet; type: biochemical; conditions: 50% inhibition of cyclic AMP phosphodiesterase; read-out: I50, Platelet (human)
Experimental: as §1

[4] = biological target: cyclic AMP phosphodiesterase; experiment: inhibition of cyclic AMP phosphodiesterase, aortic wall media (rabbit); type: biochemical; conditions: 50% inhibition of cyclic AMP phosphodiesterase; read-out: I50, Aortic Wall, Media (rabbit)
Experimental: as §1

[5] = 50 mg/Kg intraperitoneally, 1 hr
[6] = 50 mg/Kg intraperitoneally, 3 hr
[7] = 50 mg/Kg intraperitoneally, 6 hr
[8] = 50 mg/Kg intraperitoneally, 24 hr
[9] = 50 mg/Kg intraperitoneally, 48 hr
[10] = 50 mg/Kg intraperitoneally, before dosing
[11] = 40 μg/ml, intensity with compound vs saline, read-out: Inhibition ratio, primary aggregation, ADP 3 μM
[12] = 40 μg/ml, intensity with compound vs saline, read-out: Inhibition ratio, secondary aggregation, ADP 3 μM
[13] = 80 μg/ml, intensity with compound vs saline, read-out: Inhibition ratio, primary aggregation, ADP 3 μM
[14] = 80 μg/ml, intensity with compound vs saline, read-out: Inhibition ratio, secondary aggregation, ADP 3 μM
[15] = read-out: Inhibition ratio, primary aggregation, Adrenaline 1μg/ml
[16] = read-out: Inhibition ratio, secondary aggregation, Adrenaline 1μg/ml
[17] = 3.1 mg/Kg intraperitoneally, 1 hr
[18] = 3.1 mg/Kg intraperitoneally, 3 hr
[19] = 3.1 mg/Kg intraperitoneally, 6 hr
[20] = 3.1 mg/Kg intraperitoneally, 24 hr
[21] = 3.1 mg/Kg intraperitoneally, 48 hr
[22] = 12.5 mg/Kg intraperitoneally, 1 hr
[23] = 12.5 mg/Kg intraperitoneally, 3 hr
[24] = 12.5 mg/Kg intraperitoneally, 6 hr
[25] = 12.5 mg/Kg intraperitoneally, 24 hr
[26] = 12.5 mg/Kg intraperitoneally, 48 hr
[27] = 5 μg/ml, intensity with compound vs saline, read-out: Inhibition ratio, primary aggregation, ADP 3 μM
[28] = 5 μg/ml, intensity with compound vs saline, read-out: Inhibition ratio, secondary aggregation, ADP 3 μM
[29] = 10 μg/ml, intensity with compound vs saline, read-out: Inhibition ratio, primary aggregation, ADP 3 μM
[30] = 10 μg/ml, intensity with compound vs saline, read-out: Inhibition ratio, secondary aggregation, ADP 3 μM
[31] = 20 μg/ml, intensity with compound vs saline, read-out: Inhibition ratio, primary aggregation, ADP 3 μM
[32] = 20 μg/ml, intensity with compound vs saline, read-out: Inhibition ratio, secondary aggregation, ADP 3 μM

O=c1[nH]nc(CO)c2ccccc12 [4-hydroxymethyl-1-phthalazone]
LD50 (in vivo): 4000 mg/kg
Blood Pressure [1, 5]: 178
Blood Pressure [1, 6]: 179
Blood Pressure [1, 7]: 180
Blood Pressure [1, 8]: 182
Blood Pressure [1, 9]: 184
Blood Pressure [1, 10]: 183
hypotensive effect (in words) [1]: did not exhibit a significant hypotensive effect
activity at 40 µg/mL (human platelet; [11]): 86.2 ± 2.5%
activity at 40 µg/mL (human platelet; [12]): 72 ± 6.8%
activity at 80 µg/mL (human platelet; [13]): 82.4 ± 3.2%
activity at 80 µg/mL (human platelet; [14]): 64.9 ± 6.7%
activity at 300 µg/mL (human platelet; 300 μg/ml, intensity with compound vs saline, read-out: Inhibition ratio, primary aggregation, ADP 3 μM): 84.5 ± 2%
activity at 300 µg/mL (human platelet; 300 μg/ml, intensity with compound vs saline, read-out: Inhibition ratio, secondary aggregation, ADP 3 μM): 68.3 ± 3.8%
activity at 40 µg/mL (human platelet; [15]): 98.8 ± 5.9%
activity at 80 µg/mL (human platelet; [15]): 92.3 ± 6%
activity at 300 µg/mL (human platelet; [15]): 85.4 ± 3.1%
activity at 40 µg/mL (human platelet; [16]): 85.9 ± 10.1%
activity at 80 µg/mL (human platelet; [16]): 69.2 ± 7.2%
activity at 300 µg/mL (human platelet; [16]): 60.2 ± 8%
Percent of surface covered by fatty streaks (aorta of rabbits): 36.8±5.2%

CCOC(=O)c1c(C)cc2c(CO)n[nH]c(=O)c2c1C [6,8-dimethyl-7-ethoxycarbonyl-4-hydroxymethyl-1-phthalazone]
IC50 [2]: 1.6 µM
Cholesterol content (aortic wall, total) (aortic wall of rabbits; 6 weeks, placebo 32.1±3.6): 20.8±3.1 μg/mg dry weight
Cholesterol content (aortic wall, total) (aortic wall of rabbits; 10 weeks, placebo 33.8±3.0): 9.7±4.2 μg/mg dry weight
Cholesterol content (aortic wall, total) (aortic wall of rabbits; 20 weeks, placebo 29.5±5.4): 4.2±1.8 μg/mg dry weight
Blood Pressure [1, 17]: 170
Depression % (blood pressure) [1, 17]: 1.7%
Blood Pressure [1, 18]: 138
Depression % (blood pressure) [1, 18]: 20.2%
Blood Pressure [1, 19]: 110
Depression % (blood pressure) [1, 19]: 36.4%
Blood Pressure [1, 20]: 135
Depression % (blood pressure) [1, 20]: 22.0%
Blood Pressure [1, 21]: 150
Depression % (blood pressure) [1, 21]: 13.3%
Blood Pressure ([1]; 3.1 mg/Kg intraperitoneally, before dosing): 173
Blood Pressure [1, 22]: 173
Depression % (blood pressure) [1, 22]: 1.1%
Blood Pressure [1, 23]: 155
Depression % (blood pressure) [1, 23]: 11.4%
Blood Pressure [1, 24]: 120
Depression % (blood pressure) [1, 24]: 28.6%
Blood Pressure [1, 25]: 142
Depression % (blood pressure) [1, 25]: 18.9%
Blood Pressure [1, 26]: 155
Depression % (blood pressure) [1, 26]: 11.4%
Blood Pressure ([1]; 12.5 mg/Kg intraperitoneally, before dosing): 175
Blood Pressure [1, 5]: 165
Depression % (blood pressure) [1, 5]: 2.9%
Blood Pressure [1, 6]: 132
Depression % (blood pressure) [1, 6]: 22.4%
Blood Pressure [1, 7]: 110
Depression % (blood pressure) [1, 7]: 35.3%
Blood Pressure [1, 8]: 145
Depression % (blood pressure) [1, 8]: 14.7%
Blood Pressure [1, 9]: 152
Depression % (blood pressure) [1, 9]: 10.6%
Blood Pressure [1, 10]: 170
IC50 [3]: 4.1 µM
IC50 [4]: 24 µM
activity at 2.5 µg/mL (human platelet; 2.5 μg/ml, intensity with compound vs saline, read-out: Inhibition ratio, primary aggregation, ADP 3 μM): 91.7 ± 8.3%
activity at 2.5 µg/mL (human platelet; 2.5 μg/ml, intensity with compound vs saline, read-out: Inhibition ratio, secondary aggregation, ADP 3 μM): 96 ± 8.7%
activity at 5 µg/mL (human platelet; [27]): 93.3 ± 8.9%
activity at 5 µg/mL (human platelet; [28]): 59.8 ± 11.3%
activity at 10 µg/mL (human platelet; [29]): 90.6 ± 3.8%
activity at 10 µg/mL (human platelet; [30]): 49.9 ± 6.9%
activity at 20 µg/mL (human platelet; [31]): 93.1 ± 8.2%
activity at 20 µg/mL (human platelet; [32]): 56.2 ± 6.3%
activity at 40 µg/mL (human platelet; [11]): 68.5 ± 5.2%
activity at 40 µg/mL (human platelet; [12]): 41.9 ± 2.2%
activity at 2.5 µg/mL (human platelet; [15]): 88.5 ± 3.1%
activity at 5 µg/mL (human platelet; [15]): 82.4 ± 3%
activity at 10 µg/mL (human platelet; [15]): 89.1 ± 7.3%
activity at 20 µg/mL (human platelet; [15]): 97.5 ± 7.5%
activity at 2.5 µg/mL (human platelet; [16]): 52.8 ± 7.5%
activity at 5 µg/mL (human platelet; [16]): 52.4 ± 7.3%
activity at 10 µg/mL (human platelet; [16]): 57.1 ± 16%
activity at 20 µg/mL (human platelet; [16]): 99.6 ± 13.2%
Percent of surface covered by fatty streaks (aorta of rabbits): 16.2±4.3%

CCOC(=O)c1ccc2c(CO)n[nH]c(=O)c2c1 [7-ethoxycarbonyl-4-hydroxymethyl-1-phthalazone]
IC50 [2]: 52 µM
LD50 (in vivo): 5000 mg/kg
Cholesterol content (aortic wall, total) (aortic wall of rabbits; 6 weeks, placebo 32.1±3.6): 24.6±3.0 μg/mg dry weight
Cholesterol content (aortic wall, total) (aortic wall of rabbits; 10 weeks, placebo 33.8±3.0): 12.2±3.5 μg/mg dry weight
Cholesterol content (aortic wall, total) (aortic wall of rabbits; 20 weeks, placebo 29.5±5.4): 6.4±2.7 μg/mg dry weight
Blood Pressure [1, 5]: 165
Blood Pressure [1, 6]: 176
Blood Pressure [1, 7]: 180
Blood Pressure [1, 8]: 179
Blood Pressure [1, 9]: 184
Blood Pressure [1, 10]: 178
hypotensive effect (in words) [1]: did not exhibit a significant hypotensive effect
IC50 [3]: 57 µM
IC50 [4]: 144 µM
activity at 5 µg/mL (human platelet; [27]): 90.5 ± 5.6%
activity at 5 µg/mL (human platelet; [28]): 84.9 ± 6.3%
activity at 10 µg/mL (human platelet; [29]): 81.9 ± 5.2%
activity at 10 µg/mL (human platelet; [30]): 67.1 ± 6.3%
activity at 20 µg/mL (human platelet; [31]): 77 ± 5.1%
activity at 20 µg/mL (human platelet; [32]): 58.6 ± 7.6%
activity at 80 µg/mL (human platelet; [13]): 62.9 ± 5%
activity at 80 µg/mL (human platelet; [14]): 15.7 ± 0.4%
activity at 5 µg/mL (human platelet; [15]): 106 ± 6.9%
activity at 10 µg/mL (human platelet; [15]): 97 ± 4.1%
activity at 20 µg/mL (human platelet; [15]): 92.9 ± 16.9%
activity at 5 µg/mL (human platelet; [16]): 80.8 ± 13.9%
activity at 10 µg/mL (human platelet; [16]): 82.1 ± 9.5%
activity at 20 µg/mL (human platelet; [16]): 71.7 ± 13.5%
activity at 80 µg/mL (human platelet; [16]): 33 ± 7.1%
Percent of surface covered by fatty streaks (aorta of rabbits): 28.8±3.6%
